Key:
Assay in all cases: relative viability (nuclei count vs DMSO), 5 days (fraction); higher = more cells survive
Entinostat + Olaparib = compound: Nc1ccccc1NC(=O)c1ccc(CNC(=O)OCc2cccnc2)cc1 [Entinostat] + O=C(c1cc(Cc2n[nH]c(=O)c3ccccc23)ccc1F)N1CCN(C(=O)C2CC2)CC1 [Olaparib] (partner 8 µM)
Summary of the method: (§1)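 Lung cancer cell lines, seeded in 1536-well plates, were treated the following day by pin tool with a single drug or with five library-drug doses (not always all listed) in √10 steps on top of a fixed anchor-drug dose. Cells were fixed and nuclei stained in one step after 5 days, and nuclei were counted. Relative viability is the nuclei count for treated wells divided by that for vehicle wells, reported as medians of duplicate plates.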

[1] = compound: C1COCCN1C2=NC(=NC3=C2OC4=C3C=CC=N4)C5=CC(=CC=C5)NC(=O)C6=CN=C(C=C6)N + O=C(CCCCCCC(=O)Nc1ccccc1)NO [Vorinostat] (partner 1 µM)
Summary of the method: as §1

Entinostat + Navitoclax = compound: Nc1ccccc1NC(=O)c1ccc(CNC(=O)OCc2cccnc2)cc1 [Entinostat] + CC1(C)CCC(c2ccc(Cl)cc2)=C(CN2CCN(c3ccc(C(=O)NS(=O)(=O)c4ccc(N[C@H](CCN5CCOCC5)CSc5ccccc5)c(S(=O)(=O)C(F)(F)F)c4)cc3)CC2)C1 [Navitoclax] (partner 0.5 µM)
Summary of the method: as §1

[2] = compound: C1COCCN1C2=NC(=NC3=C2OC4=C3C=CC=N4)C5=CC(=CC=C5)NC(=O)C6=CN=C(C=C6)N + C[C@@H](Oc1cc(-c2cnn(C3CCNCC3)c2)cnc1N)c1c(Cl)ccc(F)c1Cl [Crizotinib] (partner 1 µM)
Summary of the method: as §1

Cell Line: LC-2-ad
- relative viability (Entinostat + Olaparib; first compound 0.02 µM): 0.785
- relative viability (Entinostat + Olaparib; first compound 0.06325 µM): 0.635
- relative viability (Entinostat + Olaparib; first compound 0.2 µM): 0.633
- relative viability (Entinostat + Olaparib; first compound 0.6325 µM): 0.527
- relative viability (Entinostat + Olaparib; first compound 2 µM): 0.3
- relative viability ([1]; first compound 0.02 µM): 0.712
- relative viability ([1]; first compound 0.06325 µM): 0.695
- relative viability ([1]; first compound 0.2 µM): 0.738
- relative viability ([1]; first compound 0.6325 µM): 0.702
- relative viability ([1]; first compound 2 µM): 0.508
- relative viability (Entinostat + Navitoclax; first compound 0.02 µM): 0.387
- relative viability (Entinostat + Navitoclax; first compound 0.06325 µM): 0.289
- relative viability (Entinostat + Navitoclax; first compound 0.2 µM): 0.264
- relative viability (Entinostat + Navitoclax; first compound 0.6325 µM): 0.17
- relative viability (Entinostat + Navitoclax; first compound 2 µM): 0.134
- relative viability ([2]; first compound 0.02 µM): 0.486
- relative viability ([2]; first compound 0.06325 µM): 0.494
- relative viability ([2]; first compound 0.2 µM): 0.411
- relative viability ([2]; first compound 0.6325 µM): 0.5
- relative viability ([2]; first compound 2 µM): 0.387

Cell Line: NCI-H596
- relative viability (Entinostat + Olaparib; first compound 0.02 µM): 0.748
- relative viability (Entinostat + Olaparib; first compound 0.06325 µM): 0.662
- relative viability (Entinostat + Olaparib; first compound 0.2 µM): 0.667
- relative viability (Entinostat + Olaparib; first compound 0.6325 µM): 0.558
- relative viability (Entinostat + Olaparib; first compound 2 µM): 0.405
- relative viability ([1]; first compound 0.02 µM): 0.618
- relative viability ([1]; first compound 0.06325 µM): 0.551
- relative viability ([1]; first compound 0.2 µM): 0.642
- relative viability ([1]; first compound 0.6325 µM): 0.489
- relative viability ([1]; first compound 2 µM): 0.465
- relative viability (Entinostat + Navitoclax; first compound 0.02 µM): 0.923
- relative viability (Entinostat + Navitoclax; first compound 0.06325 µM): 0.962
- relative viability (Entinostat + Navitoclax; first compound 0.2 µM): 0.861
- relative viability (Entinostat + Navitoclax; first compound 0.6325 µM): 0.8
- relative viability (Entinostat + Navitoclax; first compound 2 µM): 0.581
- relative viability ([2]; first compound 0.02 µM): 1.1
- relative viability ([2]; first compound 0.06325 µM): 0.983
- relative viability ([2]; first compound 0.2 µM): 0.99
- relative viability ([2]; first compound 0.6325 µM): 0.942
- relative viability ([2]; first compound 2 µM): 0.746

Cell Line: NCI-H1734
- relative viability (Entinostat + Olaparib; first compound 0.02 µM): 0.0279
- relative viability (Entinostat + Olaparib; first compound 0.06325 µM): 0.637
- relative viability (Entinostat + Olaparib; first compound 0.2 µM): 0.621
- relative viability (Entinostat + Olaparib; first compound 0.6325 µM): 0.563
- relative viability (Entinostat + Olaparib; first compound 2 µM): 0.356
- relative viability ([1]; first compound 0.02 µM): 0.815
- relative viability ([1]; first compound 0.06325 µM): 0.858
- relative viability ([1]; first compound 0.2 µM): 0.612
- relative viability ([1]; first compound 0.6325 µM): 0.706
- relative viability ([1]; first compound 2 µM): 0.522
- relative viability (Entinostat + Navitoclax; first compound 0.02 µM): 0.87
- relative viability (Entinostat + Navitoclax; first compound 0.06325 µM): 0.874
- relative viability (Entinostat + Navitoclax; first compound 0.2 µM): 0.86
- relative viability (Entinostat + Navitoclax; first compound 0.6325 µM): 0.701
- relative viability (Entinostat + Navitoclax; first compound 2 µM): 0.412
- relative viability ([2]; first compound 0.02 µM): 0.73
- relative viability ([2]; first compound 0.06325 µM): 0.731
- relative viability ([2]; first compound 0.2 µM): 0.612
- relative viability ([2]; first compound 0.6325 µM): 0.636
- relative viability ([2]; first compound 2 µM): 0.345

Cell Line: LOU-NH91
- relative viability (Entinostat + Olaparib; first compound 0.02 µM): 0.863
- relative viability (Entinostat + Olaparib; first compound 0.06325 µM): 0.904
- relative viability (Entinostat + Olaparib; first compound 0.2 µM): 0.919
- relative viability (Entinostat + Olaparib; first compound 0.6325 µM): 0.806
- relative viability (Entinostat + Olaparib; first compound 2 µM): 0.676
- relative viability ([1]; first compound 0.02 µM): 0.95
- relative viability ([1]; first compound 0.06325 µM): 0.975
- relative viability ([1]; first compound 0.2 µM): 0.926
- relative viability ([1]; first compound 0.6325 µM): 0.86
- relative viability ([1]; first compound 2 µM): 0.78
- relative viability (Entinostat + Navitoclax; first compound 0.02 µM): 0.72
- relative viability (Entinostat + Navitoclax; first compound 0.06325 µM): 0.721
- relative viability (Entinostat + Navitoclax; first compound 0.2 µM): 0.625
- relative viability (Entinostat + Navitoclax; first compound 0.6325 µM): 0.428
- relative viability (Entinostat + Navitoclax; first compound 2 µM): 0.315
- relative viability ([2]; first compound 0.02 µM): 0.729
- relative viability ([2]; first compound 0.06325 µM): 0.755
- relative viability ([2]; first compound 0.2 µM): 0.76
- relative viability ([2]; first compound 0.6325 µM): 0.74
- relative viability ([2]; first compound 2 µM): 0.664

From the supplement of paper PMC10307832
